Legend:
Assay type in all cases: cell-based, human
[1] = test system: IL-8 levels in HCT116 cells; experiment: IL-8 ELISA in TNF-α-treated HCT116 cells; conditions: for EC50: Homo sapiens, HCT-116, 16 h, read-out: EC50 (anti-inflammatory assay, 50% of activity)
Procedure: FIGS. 13A-C depict EC50 dose of fractions on HCT116 cells. (FIG. 13A) Fraction 7 (F7), (FIG. 13B) CBD and (FIG. 13C) THC. Dose-effect curves of F7, CBD or THC on IL-8 levels of HCT116 colon cancer cells. HCT116 cells were seeded (50,000 per well) in triplicate in 500 μL, growing media and incubated for 24 hours at 37° C. in a humidified 5% CO2-95% air atmosphere. Cells were treated with 50 ng/mL TNF-α and F7, CBD or THC for 16 hours. Levels of IL-8 were measured from the supernatant using a commercial kit. Values (ng/mL) were calculated relative to a TNF-α treated control. Non-treated are the cells without TNF-α and treatments. For dose response assays, data points were connected by non-linear regression lines of the sigmoidal dose-response relation. GraphPad Prism was employed to produce dose-response curve and EC50 doses.
(§1) HCT116 (ATCC CCL-247), HT29 (ATCC HTB-38) and CaCO2 (ATCC HTB-37) colon cells were grown at 37° C. in a humidified 5% CO2-95% air atmosphere. Cells were maintained in McCoy's 5a Modified Medium (HCT116 and HT29) and Dulbecco's modified Eagle's medium (DMEM) supplemented with 10% fetal bovine serum (CaCO2).
(§2) Cells were seeded, in triplicate, into a 24-well plate at a concentration of 50,000 cells per well in 500 μL, of growing media, and then incubated for 24 hours at 37° C. in a humidified 5% CO2-95% air atmosphere. When cell excitation was performed with TNF-α, cultures in each well were treated with 50-300 ng/mL recombinant human TNF-α (PeproTech, Rocky Hill, N.J., USA) and 50 μL plant extract, as described above (dilution index 57 or 280). The supernatant was taken and the level of IL-8 [12] was measured 4-16 hours post-treatment using the commercial Human CXCL8/IL-8 DuoSet ELISA kit (R&D Systems, Minneapolis, Minn., USA). As a positive control dexamethasone (Sigma-Aldrich, St. Louis, Mo., USA) at 20, 200 and 400 μM final concentration was used.
The involvement of the receptors (CB1, CB2 and GPR55) was examined by treating the cells with 20 μM of the CB1 receptor antagonist/inverse agonist Rimonabant (Abcam, Cambridge, Mass., USA), CB2 receptor antagonist/inverse agonist SR144528 (Abcam) and GPR55 antagonist/inverse agonist CID16020046 (Sigma-Aldrich, Buchs, Switzerland). […] Cell treatment with purified compounds was performed with CBD (Restek, Pa., USA) at different concentrations (as indicated in each experiment), THCA (THCA-A; Restek) at a final concentration of 0.2 mM and THC (Restek) at a final concentration of as indicated in each experiment mM to confirm the activity of each cannabinoid.
For dose response assays, data points were connected by non-linear regression lines of the sigmoidal dose-response relation. GraphPad Prism (version 6 for windows, GraphPad software Inc. San Diego, USA) was employed to produce dose-response curves and IC50 doses were calculated using nonlinear regression analysis.

[2] = test system: IL-8 levels in HT29 cells; experiment: IL-8 ELISA in TNF-α-treated HT29 cells, incl. F7/THCA + CBD combinations (Bliss model); conditions: for dose response of IL-8 levels: HT29, after 4 hours of treatment, F7 5-80 μg/ml, CBD 5-80 μM, THC 12.5-75 μM
Procedure: as §1, §2
In order to examine if there is a synergy between CBD and F7, ELISA assay was used to measure the anti-inflammatory activity of the fractions on HCT116 cells. Cells were seeded into a 24-well plates at 50,000 cells per well in triplicate in normal growing media. After 24 hours of incubation at 37° C. in a humidified 5% CO2-95% air atmosphere, cells were treated with different concentration of F7 (5 μg/mL to 80 μg/mL) with and without CBD (30 μM) along with 300 ng/mL of TNF-α or with different concentration of CBD (5 μM to 120 μM) with and without F7 (30 μg/mL) along with 300 ng/mL of TNF-α for 4 hours. Following, the supernatant was taken and the levels of IL-8 were measured using the commercial Human CXCL8/IL-8 DuoSet ELISA kit (R&D Systems, Minneapolis, Minn., USA). Resazurin (R&D Systems) was used to check the cytotoxic effect of extracts.
Drug synergy was determined by Bliss independence drug interaction model which is defined by the following equation: Exy=Ex+Ey−(ExEy)
Where (Exy) is the additive effect of the drug x and y as predicted by their individual effects (Ex and Ey). For calculation purpose, in this paper, the drug's anti-cancer effect was defined as complementary to the obtained results (1−Exy). The observed combined percentage viability is then compared to the calculated value. If the observed value of Exy is greater than the calculated Exy value, the combination treatment is considered as worse than expected, which means antagonism effect. If the observed value is less than the calculated one, then the combination treatment is considered as better than expected, thus showing synergism effect. […]

[3] = test system: IL-8 levels in CaCO2 cells; experiment: IL-8 ELISA in TNF-α-treated CaCO2 cells; conditions: CaCO2, 300 ng/mL TNF-α, 4 hours
Procedure: as §1, §2

HCT116 cells = experiment: Cell viability, Alamar Blue (Resazurin assay), HCT116
Procedure: HCT116 cells were seeded (50,000 per well) in triplicate in 500 μL growing media and incubated for 24 hours at 37° C. in a humidified 5% CO2-95% air atmosphere. […] Following, the cells were incubated with Alamar Blue for 4 hours. Relative fluorescence at the excitation/emission of 544/590 nm was measured. Values were calculated as percentage of live cells relative to the non-treated (cells without TNF-α and treatments) control after reducing the auto fluorescence of Alamar Blue without cells (n=3). […] HCT116 cells were seeded (50,000 per well) in triplicate in 500 μL, growing media and incubated for 24 hours at 37° C. in a humidified 5% CO2-95% air atmosphere. […] Relative fluorescence at the excitation/emission of 544/590 nm was measured. Values were calculated as percentage of live cells relative to the non-treated (cells without TNF-α and treatments) control after reducing the auto fluorescence of Alamar Blue without cells (n=3). […]
Resazurin (R&D Systems) was used to check the cytotoxic effect of extracts. […] Supernatant (100 μL from each well) was transferred to a 96-well plate and the relative fluorescence at the excitation/emission of 544/590 nm was measured. The number of live cells was calculated with a linear standard concentrate curve built by seeding different concentrations of cells in 24-well plates treated with Resazurin. […]

HT29 cells = experiment: Cell viability, Alamar Blue (Resazurin assay), HT29; conditions: CBD 16-252 μg/mL, relative to HCT116 and CaCO2
Procedure: (§3) Resazurin (R&D Systems) was used to check the cytotoxic effect of extracts. For this, 10% Resazurin was added to each well of the treatments with different dilution. Then the plate was incubated for 2-4 hours at 37° C. in a humidified 5% CO2-95% air atmosphere. Supernatant (100 μL from each well) was transferred to a 96-well plate and the relative fluorescence at the excitation/emission of 544/590 nm was measured. The number of live cells was calculated with a linear standard concentrate curve built by seeding different concentrations of cells in 24-well plates treated with Resazurin. Values were calculated as percentage of live cells relative to the non-treated (cells without TNF-α and treatments) control after reducing auto-fluorescence of Alamar Blue without cells.

CaCO2 cells = experiment: Cell viability, Alamar Blue (Resazurin assay), CaCO2; conditions: CBD 16-252 μg/mL
Procedure: as §3

[4] = test system: CB1 gene expression in HCT-116 cells; experiment: CB1 gene expression (qPCR) in HCT-116 cells after TNF-α; conditions: HCT-116, overnight treatment with TNF-α vs non-treated; ratio to GAPDH, 2-ΔΔCT
Procedure: (§4) Cells were seeded into a 6-well plate at a concentration of 1,500,000 cell/mL per well. After 24 hours incubation at 37° C. in a humidified 5% CO2-95% air atmosphere, cells were treated with TNF-α (final concentration of 1 ng/mL) and incubated overnight under the same conditions. Non-treated cells or cells treated only with TNF-α served as negative and positive controls, respectively. […] The next day, cells were harvested and total RNA was extracted using TRI reagent (Sigma-Aldrich) according to the manufacturer's protocol. For biopsies, all treatments were added overnight, after which the biopsies were stored at −20° C. in RNA Save solution (Biological Industries, Beit Haemek, Israel). RNA was extracted from frozen biopsies. Tissue samples were homogenized with an appropriate homogenizer in TRI reagent, as done for the cells. RNA (50 ng for biopsies: four UC patients and one CD patient) or 2.5 μg (for cells) was reverse-transcribed in a total volume of 20 μL using Maxima reverse transcriptase (Thermo Scientific, Boston, Mass., USA) according to the manufacturer's protocol. […] The expression of each target gene was normalized to the expression of GAPDH mRNA in the 2-ΔΔCt and is presented as the ratio of the target gene to GAPDH mRNA, expressed as 2-ΔCt, where Ct is the threshold cycle and ΔCt=Ct Target−Ct GAPDH. […]
(§5) Transcripts for CB1, CB2 and GPR55 were detected by qPCR in HCT116 cells.

[5] = test system: CB2 gene expression in HCT-116 cells; experiment: CB2 gene expression (qPCR) in HCT-116 cells after TNF-α; conditions: HCT-116, overnight treatment with TNF-α vs non-treated; ratio to GAPDH, 2-ΔΔCT
Procedure: as §4, §5

[6] = test system: GPR55 gene expression in HCT-116 cells; experiment: GPR55 gene expression (qPCR) in HCT-116 cells after TNF-α; conditions: HCT-116, overnight treatment with TNF-α vs non-treated; ratio to GAPDH, 2-ΔΔCT
Procedure: as §4, §5

C=C(C)[C@@H]1CCC(C)=C[C@H]1c1c(O)cc(CCCCC)cc1O [CBD, cannabidiol]
anti-inflammatory activity (IL-8) ([1]; HCT116, higher CBD concentrations): no anti-inflammatory activity | EC50 [1]: 30.4 µM | reduction in IL-8 levels ([1]; purified CBD 16-252 μg/mL, lower concentrations of CBD): reduction in IL-8 levels | anti-inflammatory activity (IL-8 level) ([2]; HT29, 300 ng/mL TNF-α, 4 hours): active in reduction of IL-8 levels | dose response of IL-8 levels [2]: dose dependent reduction of IL-8 levels | IL-8 level at low concentrations ([2]; HT29, CBD below 20 μM): significant decrease in the IL-8 level | anti-inflammatory activity (IL-8 level) [3]: active in reduction of IL-8 levels | cell death (HCT116 cells; CBD 16-252 μg/mL): dose-dependent cell death | cell death (HT29 cells): to a lesser extent | cell death (CaCO2 cells): dose-dependent cell death

Cc1ccc(-c2n[nH]c3c2C(c2cccc(O)c2)N(c2ccc(C(=O)O)cc2)C3=O)cc1 (stereo not drawn) [CID16020046]
IL-8 level in control ([1]; HCT116, antagonist 20 μM alone, without fractions): did not change IL-8 level

CCCCCc1cc(O)c2c(c1)OC(C)(C)[C@@H]1CCC(C)=C[C@@H]21 [THC, Δ9-tetrahydrocannabinol]
EC50 [1]: 102 µM | dose response of IL-8 levels [2]: dose dependent reduction of IL-8 levels

CCCCCc1cc2c(c(O)c1C(=O)O)C1C=C(C)CCC1C(C)(C)O2 (stereo not drawn) [THCA, Δ9-tetrahydrocannabinolic acid]
reduction of IL-8 levels ([1]; HCT116, 50 ng/mL TNF-α, 16 hours, 0.2 mM THCA, F7 diluted 280-fold to correspond to 0.2 mM THCA): significantly reduced IL-8 levels

SR144528
HCT116 cell proliferation (HCT116 cells; antagonist 20 μM): Significantly Increases HCT116 Cell Proliferation

TNF-α
Mean relative expression, CB1 [4]: 1.31 | Mean relative expression, CB2 [5]: 5.84 | Mean relative expression, GPR55 [6]: 5.26

From US11833131B2, “Compositions and methods for treating inflammatory diseases” (priority 2017, dated 2023)
